Test results published in ChEMBL document CHEMBL4296182, “CO-ADD screening of NIH NCI Diversity Set V”.
In brackets after ≈: the same amount, converted by molar mass.

Columns and labels:
HEK293 = experiment: cells; type: functional; settings: Homo sapiens, ATCC CRL1573, HEK293; ASSAY_TEST Inhibition of Cell Viability; detection method Resazurin; Fluorescence (ex560/em590); MEDIA DMEM with 10% FBS; plate type 384well; TC; CORNING #3712; time 18 hr
Staphylococcus aureus = experiment: microbe, parasite or virus in culture; settings: ATCC 43300, 18 h, ASSAY_TEST Inhibition of Bacterial Growth, detection method Absorption (OD600), MEDIA CAMHB, plate type 384well, NBS, CORNING #3640
Description: Antibacterial activity against Staphylococcus aureus MRSA ATCC 43300 (CO-ADD:GP_020); MIC in CAMBH media, using NBS plates, by OD(600)

Escherichia coli = experiment: microbe, parasite or virus in culture; settings: ATCC 25922, 18 h, ASSAY_TEST Inhibition of Bacterial Growth, detection method Absorption (OD600), MEDIA CAMHB, plate type 384well, NBS, CORNING #3640
Description: Antibacterial activity against Escherichia coli ATCC 25922 (CO-ADD:GN_001); MIC in CAMBH media using NBS plates, by OD(600)

Klebsiella pneumoniae = experiment: microbe, parasite or virus in culture; settings: ATCC 700603, 18 h, ASSAY_TEST Inhibition of Bacterial Growth, detection method Absorption (OD600), MEDIA CAMHB, plate type 384well, NBS, CORNING #3640
Description: Antibacterial activity against Klebsiella pneumoniae MDR ATCC 70063 (CO-ADD:GN_003); MIC in CAMBH media using NBS plates, by OD(600)

Pseudomonas aeruginosa = experiment: microbe, parasite or virus in culture; settings: ATCC 27853, 18 h, ASSAY_TEST Inhibition of Bacterial Growth, detection method Absorption (OD600), MEDIA CAMHB, plate type 384well, NBS, CORNING #3640
Description: Antibacterial activity against Pseudomonas aeruginosa ATCC 27853 (CO-ADD:GN_042); MIC in CAMBH media using NBS plates, by OD(600)

Acinetobacter baumannii = experiment: microbe, parasite or virus in culture; settings: ATCC 19606, 18 h, ASSAY_TEST Inhibition of Bacterial Growth, detection method Absorption (OD600), MEDIA CAMHB, plate type 384well, NBS, CORNING #3640
Description: Antibacterial activity against Acinetobacter baumannii ATCC 19606 (CO-ADD:GN_034); MIC in CAMBH media using NBS plates, by OD600

Candida albicans = experiment: microbe, parasite or virus in culture; settings: ATCC 90028, ASSAY_TEST Inhibition of Fungal Growth, detection method Absorption (OD530), plate type 384well, NBS, CORNING #3640
Description: Antifungal activity against Candida albicans ATCC 90028 (CO-ADD:FG_001); MIC in YNB media using NBS plates, by OD630

Description for Cryptococcus neoformans: Antifungal activity against Cryptococcus neoformans H99 ATCC 208821 (CO-ADD:FG_002); MIC in YNB media using NBS plates, by Resazurin OD(600-570)

Row | Structure (SMILES) | CC50 (HEK293) [µM] | MIC (Cryptococcus neoformans) [µM] | MIC (Staphylococcus aureus) [µM] | MIC (Escherichia coli) [µM] | MIC (Klebsiella pneumoniae) [µM] | MIC (Pseudomonas aeruginosa) [µM] | MIC (Acinetobacter baumannii) [µM] | MIC (Candida albicans) [µM]
1 | Oc1c(/N=N/c2nnn[nH]2)ccc2ccccc12 | > 10 | > 10 | > 10 | > 10 | > 10 | > 10 | > 10 | > 10
2 | CCCCOc1ccc(/N=N\c2ccc(N)nc2N)cn1 | > 10 | > 10 | > 10 | > 10 | > 10 | > 10 | > 10 | > 10
3 | Cc1cc2cc3c(O)nc(O)nc3nc2cc1C | > 10 | > 10 | > 10 | > 10 | > 10 | > 10 | > 10 | > 10
4 | CO[C@@]12[C@H](COC(N)=O)C3=C(C(=O)C(C)=C(N)C3=O)N1C[C@@H]1N[C@@H]12 [MITOMYCIN] | 9.02 | > 10 | 0.156 (≈ 0.0523 µg/mL) | 1.25 (≈ 0.418 µg/mL) | > 10 | 10 (≈ 3.34 µg/mL) | 5 (≈ 1.67 µg/mL) | > 10
5 | COC(=O)C1(F)C(=O)NC(=O)NC1OC (configuration not stated) | > 10 | > 10 | 5 (≈ 1.1 µg/mL) | > 10 | > 10 | > 10 | > 10 | > 10
6 | Cc1ccc([S+]([O-])c2ccc([N+](=O)[O-])c3nonc23)cc1 (configuration not stated) | > 10 | > 10 | > 10 | > 10 | > 10 | > 10 | > 10 | > 10
7 | Cc1cnc(SCc2ccc(Cl)cc2Cl)nc1O | > 10 | > 10 | > 10 | > 10 | > 10 | > 10 | > 10 | > 10
8 | O=[N+]([O-])c1ccc(-c2ccccc2)c([As](=O)(O)O)c1 | > 10 | > 10 | > 10 | > 10 | > 10 | > 10 | > 10 | > 10
9 | O=C(O)c1[nH]c(=O)[nH]c(=O)c1F | > 10 | > 10 | > 10 | > 10 | > 10 | > 10 | > 10 | > 10
10 | O=C1C(Cl)=C(NCCc2ccccc2)C(=O)c2ccccc21 | > 10 | 0.625 (≈ 0.195 µg/mL) | > 10 | > 10 | > 10 | > 10 | > 10 | 0.625 (≈ 0.195 µg/mL)
11 | C=C(C)C(=O)Oc1ccc(/N=N/c2ccc(C)cc2)ccc1=O | > 10 | > 10 | > 10 | > 10 | > 10 | > 10 | > 10 | 10 (≈ 3.08 µg/mL)
12 | Sc1nc2cc(-c3ccccc3)ccc2o1 | > 10 | > 10 | > 10 | > 10 | > 10 | > 10 | > 10 | > 10
13 | CSc1nc(C)c(Br)c(N2CC2)n1 | > 10 | > 10 | > 10 | > 10 | > 10 | > 10 | > 10 | > 10
14 | NC1(N2SC(S)=C3CCCC=C32)CCCCC1 | > 10 | > 10 | 10 (≈ 2.68 µg/mL) | > 10 | > 10 | > 10 | > 10 | > 10
15 | O=[N+]([O-])c1ccc(/C=[N+](\[O-])CCO)o1 | > 10 | > 10 | > 10 | 10 (≈ 2 µg/mL) | > 10 | > 10 | > 10 | > 10
16 | CC[C@@]1(O)C(=O)OCc2c1cc1n(c2=O)Cc2cc3c(NC(=O)CN)cccc3nc2-1 | 0.6 | > 10 | > 10 | > 10 | > 10 | > 10 | > 10 | > 10
17 | O=C(c1cccnc1)C1Cc2ccccc2C1=O (configuration not stated) | > 10 | > 10 | > 10 | > 10 | 5 (≈ 1.19 µg/mL) | > 10 | > 10 | > 10

Row | Structure (SMILES) | CC50 (HEK293) [µM] | MIC (Cryptococcus neoformans) [µM] | MIC (Staphylococcus aureus) [µM] | MIC (Escherichia coli) [µM] | MIC (Klebsiella pneumoniae) [µM] | MIC (Pseudomonas aeruginosa) [µM] | MIC (Acinetobacter baumannii) [µM] | MIC (Candida albicans) [µM]
18 | N=C(N)NCCCS(=O)(=O)Nc1ccc(Nc2c3ccccc3nc3cc([N+](=O)[O-])ccc23)cc1 | > 10 | > 10 | > 10 | > 10 | > 10 | > 10 | > 10 | > 10
19 | O=[N+]([O-])c1ccc(Sc2cccc[n+]2[O-])c2nonc12 | 2.53 | 10 (≈ 2.9 µg/mL) | > 10 | > 10 | > 10 | > 10 | > 10 | 1.25 (≈ 0.363 µg/mL)
20 | Cc1ccc(NCCN(C)C)c2c(=O)c3cc(O)ccc3sc12 | 1.3 | > 10 | > 10 | > 10 | > 10 | > 10 | > 10 | > 10
21 | O=C1C=CC(=O)N1c1ccc(I)cc1Cl | > 10 | > 10 | > 10 | > 10 | > 10 | > 10 | > 10 | > 10
22 | SC1=NC2(CCCCCC2)NN1c1ccccc1 | > 10 | > 10 | > 10 | > 10 | > 10 | > 10 | > 10 | > 10
23 | OC(c1cc(-c2ccc(Cl)cc2)nc2ccccc12)C1CCCCN1 (configuration not stated) | > 10 | > 10 | > 10 | > 10 | > 10 | > 10 | > 10 | > 10
24 | Cc1c(-c2ccccc2)n(O)[n+]([O-])c1-c1ccccc1 | > 10 | > 10 | > 10 | > 10 | > 10 | > 10 | > 10 | > 10
25 | CN(C)CCOc1ccc2c(c1)C(=O)/C(=C\c1ncc([N+](=O)[O-])n1C)C2 | 1.55 | > 10 | 5 (≈ 1.78 µg/mL) | 0.156 (≈ 0.0557 µg/mL) | > 10 | > 10 | > 10 | > 10
26 | O=C(Nc1cccc(-c2nc3ccccc3[nH]2)c1)c1ccc(C(=O)Nc2cccc(-c3nc4ccccc4[nH]3)c2)cc1 | > 10 | > 10 | > 10 | > 10 | > 10 | > 10 | > 10 | > 10
27 | Oc1c(CN2CCN(c3ccccc3)CC2)cc(Br)c2cccnc12 | > 10 | > 10 | > 10 | > 10 | > 10 | > 10 | > 10 | > 10
28 | Cn1cnc([N+](=O)[O-])c1S(=O)(=O)Oc1cccc2ccccc12 | 8.21 | > 10 | > 10 | > 10 | > 10 | > 10 | > 10 | ≤ 0.0781
29 | CN(C)c1n/c(=N/c2cccc(Cl)c2)ss1 | > 10 | > 10 | > 10 | > 10 | > 10 | > 10 | > 10 | 10 (≈ 2.72 µg/mL)
30 | Clc1ccc(SCNc2ccccc2Cl)cc1 | > 10 | > 10 | > 10 | > 10 | > 10 | > 10 | > 10 | > 10
31 | Cc1cc(N)c2cc(NC(=O)/C=C\c3ccccc3Cl)ccc2n1 | 2.78 | 5 (≈ 1.69 µg/mL) | 10 (≈ 3.38 µg/mL) | > 10 | > 10 | > 10 | > 10 | > 10
32 | COC(=O)C1C(O)C(C)C(O)C(C)/C=C\C=C(/C)C(=O)Nc2c(C)c(OC(C)=O)c3c(c2O)C(=O)C(C)=C2OCOC(=C23)/C(C)=C/C(C)(O)C(O)C(C)C1O (configuration not stated) | 9.11 | > 10 | 1.25 (≈ 0.962 µg/mL) | > 10 | > 10 | > 10 | > 10 | > 10
33 | COC(=O)N1C2CCCCC2=NN(c2ccccc2)N1C(=O)OC (configuration not stated) | > 10 | > 10 | > 10 | > 10 | > 10 | > 10 | > 10 | > 10
34 | N=C(Nc1nc(-c2ccccn2)cc2ccccc12)c1ccccn1 | > 10 | 10 (≈ 3.25 µg/mL) | > 10 | > 10 | > 10 | > 10 | > 10 | 5 (≈ 1.63 µg/mL)
